Source: the supplement of paper PMC10307832

Assays:
Assay in all cases: relative viability (nuclei count vs DMSO), 5 days (fraction); higher = more cells survive
VX-11e + Foretinib = compound: CC1=CN=C(N=C1C2=CNC(=C2)C(=O)N[C@H](CO)C3=CC(=CC=C3)Cl)NC4=C(C=C(C=C4)F)Cl [VX-11e] + COc1cc2c(Oc3ccc(NC(=O)C4(C(=O)Nc5ccc(F)cc5)CC4)cc3F)ccnc2cc1OCCCN1CCOCC1 [Foretinib] (partner 0.25 µM)
Outline: (§1)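 Lung cancer cell lines were pin-tool dosed in 1536-well plates on the day after seeding, with either a lone drug or a fixed anchor-drug dose plus five library-drug doses (not always all listed) in √10 steps. Nuclei were counted on 4× images after 5 days. Relative viability is the ratio of treated-well to vehicle-well nuclei counts, with each value a median of duplicate plates.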

VX-11e + OSI-027 = compound: CC1=CN=C(N=C1C2=CNC(=C2)C(=O)N[C@H](CO)C3=CC(=CC=C3)Cl)NC4=C(C=C(C=C4)F)Cl [VX-11e] + COc1cccc2cc(-c3nc([C@H]4CC[C@H](C(=O)O)CC4)n4ncnc(N)c34)[nH]c12 [OSI-027] (partner 0.5 µM)
Outline: as §1

VX-11e + Pemetrexed = compound: CC1=CN=C(N=C1C2=CNC(=C2)C(=O)N[C@H](CO)C3=CC(=CC=C3)Cl)NC4=C(C=C(C=C4)F)Cl [VX-11e] + Nc1nc2[nH]cc(CCc3ccc(C(=O)N[C@@H](CCC(=O)O)C(=O)O)cc3)c2c(=O)[nH]1 [Pemetrexed] (partner 0.2 µM)
Outline: as §1

VX-11e + AZD7762 = compound: CC1=CN=C(N=C1C2=CNC(=C2)C(=O)N[C@H](CO)C3=CC(=CC=C3)Cl)NC4=C(C=C(C=C4)F)Cl [VX-11e] + NC(=O)Nc1cc(-c2cccc(F)c2)sc1C(=O)N[C@H]1CCCNC1 [AZD7762] (partner 0.2 µM)
Outline: as §1

| Cell Line | relative viability (VX-11e + Foretinib; first compound 0.04 µM) | relative viability (VX-11e + Foretinib; first compound 0.1265 µM) | relative viability (VX-11e + Foretinib; first compound 1.265 µM) | relative viability (VX-11e + Foretinib; first compound 4 µM) | relative viability (VX-11e + OSI-027; first compound 0.04 µM) | relative viability (VX-11e + OSI-027; first compound 0.1265 µM) | relative viability (VX-11e + OSI-027; first compound 1.265 µM) | relative viability (VX-11e + OSI-027; first compound 4 µM) | relative viability (VX-11e + Pemetrexed; first compound 0.04 µM) | relative viability (VX-11e + Pemetrexed; first compound 0.1265 µM) | relative viability (VX-11e + Pemetrexed; first compound 0.4 µM) | relative viability (VX-11e + Pemetrexed; first compound 1.265 µM) | relative viability (VX-11e + Pemetrexed; first compound 4 µM) | relative viability (VX-11e + Foretinib; first compound 0.4 µM) | relative viability (VX-11e + OSI-027; first compound 0.4 µM) | relative viability (VX-11e + AZD7762; first compound 0.1265 µM) | relative viability (VX-11e + AZD7762; first compound 0.4 µM) | relative viability (VX-11e + AZD7762; first compound 1.265 µM) | relative viability (VX-11e + AZD7762; first compound 4 µM) | relative viability (VX-11e + AZD7762; first compound 0.04 µM) |
| --- | --- | --- | --- | --- | --- | --- | --- | --- | --- | --- | --- | --- | --- | --- | --- | --- | --- | --- | --- | --- |
| NCI-H2228 | 0.79 | 0.936 | 0.482 | 0.275 | 0.617 | 0.54 | 0.216 | 0.123 | 0.337 | 0.371 | 0.363 | 0.311 | 0.183 | – | – | – | – | – | – | – |
| SW 1573 | 0.947 | 0.902 | 0.86 | 0.708 | 0.52 | 0.561 | 0.402 | 0.194 | – | 0.88 | 0.703 | 0.559 | 0.393 | 0.78 | 0.708 | – | – | – | – | – |
| NCI-H2342 | 1.15 | 1.1 | 1.07 | 0.893 | 0.505 | 0.592 | 0.539 | 0.56 | – | 0.83 | 0.757 | 0.798 | 0.737 | 0.98 | 0.637 | 0.462 | 0.604 | 0.508 | 0.466 | – |
| A-427 | 1.14 | 1.01 | 0.805 | 0.342 | 0.334 | 0.19 | 0.215 | 0.183 | 1.02 | 0.983 | 1.1 | 0.966 | 0.606 | 0.835 | 0.309 | 0.641 | 0.633 | 0.566 | 0.438 | 0.743 |
| HARA | 0.857 | 0.856 | 0.734 | 0.343 | 0.269 | 0.372 | 0.186 | 0.0641 | 0.253 | 0.236 | 0.26 | 0.186 | 0.131 | 0.841 | 0.279 | 0.391 | 0.258 | 0.281 | 0.306 | 0.575 |
| HCC-78 | – | 0.54 | 0.514 | 0.496 | – | 0.364 | 0.376 | 0.393 | 0.938 | 0.859 | 0.884 | 0.858 | 0.919 | 0.542 | 0.395 | 0.814 | 0.725 | 0.371 | 0.527 | 0.58 |
| NCI-H1755 | 0.925 | 0.931 | 0.945 | 0.598 | 0.665 | 0.527 | 0.756 | 0.468 | 0.449 | 0.326 | 0.409 | 0.424 | 0.396 | 0.905 | 0.4 | 0.333 | 0.341 | 0.513 | 0.359 | 0.434 |
| ABC-1 | 1.48 | 0.996 | 1.16 | 0.826 | 0.309 | 0.426 | 0.339 | 0.278 | – | – | – | – | – | 0.899 | 0.374 | 0.785 | 0.711 | 0.779 | 0.572 | 0.988 |
| Calu-6 | 0.969 | 0.869 | 0.397 | 0.103 | – | – | – | – | – | – | – | – | – | 0.829 | – | – | – | – | – | – |
| NCI-H2023 | 0.811 | 0.771 | 0.513 | 0.42 | 0.332 | 0.349 | 0.183 | 0.114 | 0.224 | 0.241 | 0.225 | 0.145 | 0.157 | – | 0.139 | – | – | – | – | – |
| NCI-H1563 | 1.02 | 0.832 | 0.922 | 0.763 | 0.729 | 0.697 | 0.822 | 0.789 | 0.766 | 0.798 | 0.915 | 0.631 | 0.655 | 0.862 | 0.705 | – | – | – | – | – |
| EBC-1 | 0.104 | 0.107 | 0.111 | 0.109 | – | – | – | – | – | – | – | – | – | 0.0992 | – | – | – | – | – | – |
| SK-LU-1 | 0.882 | 0.779 | 0.574 | 0.224 | 0.285 | 0.352 | 0.233 | 0.132 | 1.01 | 0.981 | 0.975 | 0.596 | 0.301 | – | – | – | – | – | – | – |
| NCI-H727 | 0.76 | 0.775 | 0.55 | 0.302 | 0.353 | 0.678 | 0.447 | 0.284 | – | – | – | – | – | 0.846 | 0.522 | 0.616 | 0.652 | 0.476 | 0.385 | 0.519 |
| A549 | 1.02 | 0.973 | 0.321 | 0.0913 | – | – | – | – | – | – | – | – | – | 0.922 | – | – | – | – | – | – |
| NCI-H2009 | 1.33 | 1.18 | 0.857 | 0.509 | 0.637 | 0.665 | 0.226 | 0.168 | 1.08 | 1.03 | 1.12 | 1.1 | 0.673 | 1.06 | 0.559 | – | – | – | – | – |
| NCI-H661 | 1.03 | 1.04 | 1.07 | 0.66 | 0.727 | 0.632 | 0.625 | 0.396 | 0.814 | 0.912 | 0.901 | 0.88 | 0.756 | 1.05 | 0.751 | – | – | – | – | – |
| COR-L 105 | 1.39 | 1.1 | 0.562 | 0.653 | 0.541 | 0.802 | 0.326 | 0.254 | 1.11 | 0.905 | 0.921 | 0.93 | 0.527 | 0.963 | 0.552 | – | – | – | – | – |
| UMC-11 | 1.05 | 0.946 | 0.976 | 0.905 | 0.36 | 0.435 | 0.379 | 0.428 | 0.799 | 0.762 | 0.866 | 0.754 | 0.681 | 0.986 | 0.41 | – | – | – | – | – |
| NCI-H1650 | 1.14 | 0.972 | 1.02 | 0.711 | 0.592 | 0.534 | 0.402 | 0.307 | 0.323 | 0.335 | 0.334 | 0.377 | 0.305 | – | – | – | – | – | – | – |
| NCI-H1299 | 1.2 | 1.08 | 1.23 | 0.52 | – | – | – | – | – | – | – | – | – | 1.11 | – | – | – | – | – | – |
| SK-MES-1 | 1.03 | 0.881 | 1.02 | 0.419 | 0.585 | 0.436 | 0.552 | 0.185 | 0.903 | 0.921 | 0.818 | 0.553 | 0.42 | 0.857 | 0.632 | – | – | – | – | – |
